This is an account of results in patent publication US12173026B2, “PRMT5 inhibitors” (Merck Sharp & Dohme LLC, priority 2018, dated 2024).

The assay deals with symmetric dimethylation of arginine (SDMA) of PRMT5 substrates in MCF-7 cells. The assay is described as follows: PRMT5 Cell Target Engagement (TE) Assay. In kind it is cell-based. Particulars: Homo sapiens, MCF7, 72 h; MCF-7 cells treated for 3 days; nuclear SDMA by high content imaging; top concentration 10000 nM. The method, boiled down: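 MCF-7 cells treated 3 days at 37 °C with 10-point 1:3 titration from 10000 nM top. Fixed cells stained with anti-SDMA antibody plus Alexa488 secondary and Hoechst; nuclear fluorescence quantified by high-content imaging versus DMSO wells. EC50 from 4-parameter fit of percent fluorescence vs log concentration.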

pEC50: −log10 of the molar value.

In the case of `Cc1nc(N)c2c(F)cn([C@@H]3O[C@@H]4[C@H](Cc5ccc6cc(F)c(N)nc6c5)CC[C@]4(O)[C@H]3O)c2n1` [Example 44, (2R,3R,3aS,6S,6aR)-6-((2-amino-3-fluoroquinolin-7-yl)methyl)-2-(4-amino-5-fluoro-2-methyl-7H-pyrrolo[2,3-d]pyrimidin-7-yl)hexahydro-3aH-cyclopenta[b]furan-3,3a-diol 2,2,2-trifluoroacetate], the pEC50 was 8.06. The compound `Cc1ncnc2c1ccn2[C@@H]1O[C@@H]2[C@@H](Nc3ccc4cc(F)c(N)nc4c3)CC[C@]2(O)[C@H]1O` [Example 120, (2R,3R,3aS,6S,6aR)-6-(2-amino-3-fluoroquinolin-7-yl)amino-2-(4-methyl-7H-pyrrolo[2,3-d]pyrimidin-7-yl)hexahydro-3aH-cyclopenta[b]furan-3,3a-diol] showed a pEC50 of 8.70. With `Nc1nc2cc(O[C@H]3CC[C@@]4(O)[C@@H]3O[C@@H](n3ccc5cncnc53)[C@@H]4O)ccc2cc1Br` [Example 85, (2R,3R,3aS,6S,6aR)-6-((2-amino-3-bromoquinolin-7-yl)oxy)-2-(7H-pyrrolo[2,3-d]pyrimidin-7-yl)hexahydro-3aH-cyclopenta[b]furan-3,3a-diol] the figure was 7.49. With `Cc1ncnc2c1ccn2[C@@H]1C[C@@H]2[C@H](Cc3ccc4cc(Br)c(N)nc4c3)CC[C@]2(O)[C@H]1O` [Example 19, (1S,2R,3aR,4S,6aR)-4-((2-amino-3-bromoquinolin-7-yl)methyl)-2-(4-methyl-7H-pyrrolo[2,3-d]pyrimidin-7-yl)hexahydropentalene-1,6a(1H)-diol] the figure was 8.96; with `Nc1nc2cc(O[C@H]3CC[C@@]4(O)[C@@H]3O[C@@H](n3cc(C5CC5)c5c(N)ncnc53)[C@@H]4O)ccc2cc1Br` [Example 52, (2R,3R,3aS,6S,6aR)-6-[(2-amino-3-bromoquinolin-7-yl)oxy]-2-(4-amino-5-cyclopropyl-7H-pyrrolo[2,3-d]pyrimidin-7-yl)hexahydro-3aH-cyclopenta[b]furan-3,3a-diol], 7.12; with `C[C@@]1(O)[C@@H](COc2ccc3ccc(N)nc3c2)C[C@@H](n2ccc3cncnc32)[C@@H]1O` [Example 105, (1R,2S,3R,5R)-5-(((2-aminoquinolin-7-yl)oxy)methyl)-1-methyl-3-(7H-pyrrolo[2,3-d]pyrimidin-7-yl)cyclopentane-1,2-diol], 9.05. In turn, `Cc1cn([C@@H]2O[C@@H]3[C@@H](Oc4ccc5cc(Br)c(N)nc5c4)CC[C@]3(O)[C@H]2O)c2ncnc(N)c12` [Example 60, (2R,3R,3aS,6S,6aR)-6-((2-amino-3-bromoquinolin-7-yl)oxy)-2-(4-amino-5-methyl-7H-pyrrolo[2,3-d]pyrimidin-7-yl)hexahydro-3aH-cyclopenta[b]furan-3,3a-diol] gave a pEC50 of 8.82.

Regarding `Cc1ncnc2c1ccn2[C@@H]1O[C@@H]2[C@H](Cc3cnc4cc(F)c(N)nc4c3)CC[C@]2(O)[C@H]1O` [Example 25, (2R,3R,3aS,6S,6aR)-6-((6-amino-7-fluoro-1,5-naphthyridin-3-yl)methyl)-2-(4-methyl-7H-pyrrolo[2,3-d]pyrimidin-7-yl)hexahydro-3aH-cyclopenta[b]furan-3,3a-diol, 3HCl], the pEC50 was 6.59. Compared with the last compound, the pEC50 is 2.23 log units lower. For the compound `CNc1ncnc2c1ccn2[C@@H]1C[C@H](COc2ccc3cc(Br)c(N)nc3c2)[C@@](C)(O)[C@H]1O` [Example 93, (1R,2S,3R,5R)-5-(((2-amino-3-bromoquinolin-7-yl)oxy)methyl)-1-methyl-3-(4-(methylamino)-7H-pyrrolo[2,3-d]pyrimidin-7-yl)cyclopentane-1,2-diol], the pEC50 is 8.46. The result for `Nc1nc2cc(O[C@H]3CC[C@@]4(O)[C@@H]3O[C@@H](n3cc(F)c5c(N)ncnc53)[C@@H]4O)ccc2cc1Br` [Example 56, (2R,3R,3aS,6S,6aR)-6-((2-amino-3-bromoquinolin-7-yl)oxy)-2-(4-amino-5-fluoro-7H-pyrrolo[2,3-d]pyrimidin-7-yl)hexahydro-3aH-cyclopenta[b]furan-3,3a-diol] reads 8.92; that for `Cc1cn([C@@H]2O[C@@H]3[C@H](Cc4ccc5cc(F)c(N)nc5c4)CC[C@]3(O)[C@H]2O)c2ncnc(N)c12` [Example 62, (2R,3R,3aS,6S,6aR)-6-((2-amino-3-fluoroquinolin-7-yl)methyl)-2-(4-amino-5-methyl-7H-pyrrolo[2,3-d]pyrimidin-7-yl)hexahydro-3aH-cyclopenta[b]furan-3,3a-diol 2,2,2-trifluoroacetate], 8.43; that for `Nc1nc2cc(C[C@@H]3CC[C@@]4(O)[C@@H]3O[C@@H](n3cc(F)c5c(N)ncnc53)[C@@H]4O)cc(F)c2cc1F` [Example 24, (2R,3R,3aS,6S,6aR)-6-((2-amino-3,5-difluoroquinolin-7-yl)methyl)-2-(4-amino-5-fluoro-7H-pyrrolo[2,3-d]pyrimidin-7-yl)hexahydro-3aH-cyclopenta[b]furan-3,3a-diol], 8.89. The result for `Nc1nc2cc(C[C@@H]3CC[C@@]4(O)[C@@H]3O[C@@H](n3ccc5c(N)ncnc53)[C@@H]4O)ccc2cc1Br` [Example 9, (2R,3R,3aS,6S,6aR)-6-((2-amino-3-bromoquinolin-7-yl)methyl)-2-(4-amino-7H-pyrrolo[2,3-d]pyrimidin-7-yl)hexahydro-2H-cyclopenta[b]furan-3,3a-diol] reads 8.89; that for `C[C@@]1(O)[C@@H](COc2ccc3cc(Br)c(N)nc3c2)O[C@@H](n2ccc3c(N)ncnc32)[C@@H]1O` [Example 10, (2R,3S,4R,5R)-2-(((2-amino-3-bromoquinolin-7-yl)oxy)methyl)-5-(4-amino-7H-pyrrolo[2,3-d]pyrimidin-7-yl)-3-methyltetrahydrofuran-3,4-diol], 8.19. Take `Nc1ncnc2c1ccn2[C@@H]1O[C@@H]2[C@@H](Oc3ccc4ccc(NCC(F)(F)F)nc4c3)CC[C@]2(O)[C@H]1O` [Example 57, (2R,3R,3aS,6S,6aR)-2-(4-amino-7H-pyrrolo[2,3-d]pyrimidin-7-yl)-6-((2-((2,2,2-trifluoroethyl)amino)quinolin-7-yl)oxy)hexahydro-3aH-cyclopenta[b]furan-3,3a-diol]: the pEC50 was 8.68. Compared with the last compound, the pEC50 is 0.49 log units higher. Compound `Cc1ncnc2c1ccn2[C@@H]1O[C@@H]2[C@@H](Cc3ccc4cc(Br)c(N)nc4c3)OC[C@]2(O)[C@H]1O` [Example 134, (2R,3R,3aS,6R,6aR)-6-((2-amino-3-bromoquinolin-7-yl)methyl)-2-(4-methyl-7H-pyrrolo[2,3-d]pyrimidin-7-yl)tetrahydrofuro[3,4-b]furan-3,3a(4H)-diol] had a pEC50 of 7.45. Against the preceding compound, the pEC50 is 1.23 log units lower. The result for `Nc1nc2cc(C[C@@H]3CC[C@@]4(O)[C@@H]3O[C@@H](n3cc(F)c5c(N)ncnc53)[C@@H]4O)ccc2cc1F` [Example 59, (2R,3R,3aS,6S,6aR)-6-((2-amino-3-fluoroquinolin-7-yl)methyl)-2-(4-amino-5-fluoro-7H-pyrrolo[2,3-d]pyrimidin-7-yl)hexahydro-3aH-cyclopenta[b]furan-3,3a-diol] reads 8.34; that for `C[C@@]1(O)[C@@H](CCc2ccc3cc(Br)c(N)nc3c2)C[C@@H](n2ccc3c(N)ncnc32)[C@@H]1O` [Example 103, (1R,2S,3R,5S)-5-(2-(2-amino-3-bromoquinolin-7-yl)ethyl)-3-(4-amino-7H-pyrrolo[2,3-d]pyrimidin-7-yl)-1-methylcyclopentane-1,2-diol], 7.91; that for `Cc1cn([C@@H]2O[C@@H]3[C@H](Cc4ccc5cc(Cl)c(N)nc5c4)CC[C@]3(O)[C@H]2O)c2ncnc(N)c12` [Example 66, (2R,3R,3aS,6S,6aR)-6-((2-amino-3-chloroquinolin-7-yl)methyl)-2-(4-amino-5-methyl-7H-pyrrolo[2,3-d]pyrimidin-7-yl)hexahydro-3aH-cyclopenta[b]furan-3,3a-diol], 9.05. The result for `Nc1nc2cc(O[C@H]3CC[C@@]4(O)[C@@H]3O[C@@H](n3ccc5c(CO)ncnc53)[C@@H]4O)ccc2cc1Br` [Example 77, (2R,3R,3aS,6S,6aR)-6-[(2-amino-3-bromoquinolin-7-yl)oxy]-2-[4-(hydroxymethyl)-7H-pyrrolo[2,3-d]pyrimidin-7-yl]hexahydro-3aH-cyclopenta[b]furan-3,3a-diol] reads 6.73. The result for `C[C@]1(O)[C@@H](O)[C@H](n2ccc3c(N)ncnc32)C[C@]1(O)CCc1ccc2cc(Br)c(N)nc2c1` [Example 118, (1R,2S,3S,4R)-1-(2-(2-amino-3-bromoquinolin-7-yl)ethyl)-4-(4-amino-7H-pyrrolo[2,3-d]pyrimidin-7-yl)-2-methylcyclopentane-1,2,3-triol] reads 6.99; that for `C[C@@]1(CCc2ccc3cc(F)c(N)nc3c2)C[C@@H](n2ccc3c(N)ncnc32)[C@H](O)[C@@H]1O` [Example 116, (1S,2R,3R,5R)-3-(2-(2-amino-3-fluoroquinolin-7-yl)ethyl)-5-(4-amino-7H-pyrrolo[2,3-d]pyrimidin-7-yl)-3-methylcyclopentane-1,2-diol], 7.27. On to `Nc1nc2cc(C[C@@H]3CC[C@@]4(O)[C@@H]3O[C@@H](n3cc(C(F)F)c5c(N)ncnc53)[C@@H]4O)ccc2cc1Br` [Example 43, (2R,3R,3aS,6S,6aR)-6-[(2-amino-3-bromoquinolin-7-yl)methyl]-2-[4-amino-5-(difluoromethyl)-7H-pyrrolo[2,3-d]pyrimidin-7-yl]hexahydro-3aH-cyclopenta[b]furan-3,3a-diol], for which the pEC50 is 9.00. `CNc1ncnc2c1c(F)cn2[C@@H]1O[C@@H]2[C@H](Cc3ccc4cc(Br)c(N)nc4c3)CC[C@]2(O)[C@H]1O` [Example 96, (2R,3R,3aS,6S,6aR)-6-((2-amino-3-bromoquinolin-7-yl)methyl)-2-(5-fluoro-4-(methylamino)-7H-pyrrolo[2,3-d]pyrimidin-7-yl)hexahydro-3aH-cyclopenta[b]furan-3,3a-diol] showed a pEC50 of 7.95.
